Experiments:
[1] = target: Tyrosine-protein kinase Lck (Homo sapiens, UniProt P06239); assay: Inhibition of LCK (unknown origin)
[2] = target: T1, Tyrosine-protein kinase Tec (Homo sapiens, UniProt P42680); assay: Inhibition of TEC (unknown origin)
T1 sequence (P42680 whole entry): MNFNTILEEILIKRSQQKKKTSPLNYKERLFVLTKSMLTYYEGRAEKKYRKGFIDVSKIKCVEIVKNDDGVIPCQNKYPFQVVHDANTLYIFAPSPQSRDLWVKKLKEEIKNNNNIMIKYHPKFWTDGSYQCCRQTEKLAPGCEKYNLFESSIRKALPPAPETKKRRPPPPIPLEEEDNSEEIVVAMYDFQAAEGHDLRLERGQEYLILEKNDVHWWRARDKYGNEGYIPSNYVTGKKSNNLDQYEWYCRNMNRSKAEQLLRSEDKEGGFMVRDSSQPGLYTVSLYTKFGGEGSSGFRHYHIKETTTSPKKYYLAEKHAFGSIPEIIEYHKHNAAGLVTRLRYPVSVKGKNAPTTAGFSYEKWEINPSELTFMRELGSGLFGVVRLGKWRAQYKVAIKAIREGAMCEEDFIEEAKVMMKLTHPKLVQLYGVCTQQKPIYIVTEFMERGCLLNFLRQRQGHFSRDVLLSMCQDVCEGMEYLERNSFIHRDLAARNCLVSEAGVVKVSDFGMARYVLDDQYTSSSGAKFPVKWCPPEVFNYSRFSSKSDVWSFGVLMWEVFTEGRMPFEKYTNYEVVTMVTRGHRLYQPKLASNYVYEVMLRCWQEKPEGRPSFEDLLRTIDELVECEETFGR

[3] = target: T2, Tyrosine-protein kinase BTK (Homo sapiens, UniProt Q06187); assay: Inhibition of recombinant full-length His6-tagged BTK (unknown origin) expressed in baculovirus infected Sf9 cells using biotinylated A5 peptide as substrate preincubated for 60 mins followed by substrate addition measured after 120 mins by LANCE TR-FRET assay
T2 sequence (Q06187 whole entry): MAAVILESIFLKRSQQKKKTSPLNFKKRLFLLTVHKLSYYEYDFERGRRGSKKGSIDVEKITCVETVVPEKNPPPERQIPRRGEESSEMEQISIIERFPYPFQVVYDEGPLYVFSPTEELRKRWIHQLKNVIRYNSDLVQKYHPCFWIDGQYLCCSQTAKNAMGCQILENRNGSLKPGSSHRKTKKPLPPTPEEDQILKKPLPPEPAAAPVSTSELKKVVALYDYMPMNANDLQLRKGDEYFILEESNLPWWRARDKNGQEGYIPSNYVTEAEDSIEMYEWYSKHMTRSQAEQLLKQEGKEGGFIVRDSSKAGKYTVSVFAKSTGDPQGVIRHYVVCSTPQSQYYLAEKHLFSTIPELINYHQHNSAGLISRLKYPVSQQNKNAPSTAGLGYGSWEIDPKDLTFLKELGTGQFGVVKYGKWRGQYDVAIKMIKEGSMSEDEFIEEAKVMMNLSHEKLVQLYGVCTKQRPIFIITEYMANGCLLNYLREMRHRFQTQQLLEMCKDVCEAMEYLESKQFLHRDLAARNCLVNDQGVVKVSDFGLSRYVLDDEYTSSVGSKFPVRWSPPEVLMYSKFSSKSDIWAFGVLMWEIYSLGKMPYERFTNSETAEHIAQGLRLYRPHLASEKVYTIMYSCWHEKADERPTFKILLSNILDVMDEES

[4] = target: Protein-tyrosine kinase 6 (Homo sapiens, UniProt Q13882); assay: Inhibition of PTK6 (unknown origin)
[5] = target: Tyrosine-protein kinase Yes (Homo sapiens, UniProt P07947); assay: Inhibition of YES1 (unknown origin)
Chain of Tyrosine-protein kinase Yes (P07947 whole entry): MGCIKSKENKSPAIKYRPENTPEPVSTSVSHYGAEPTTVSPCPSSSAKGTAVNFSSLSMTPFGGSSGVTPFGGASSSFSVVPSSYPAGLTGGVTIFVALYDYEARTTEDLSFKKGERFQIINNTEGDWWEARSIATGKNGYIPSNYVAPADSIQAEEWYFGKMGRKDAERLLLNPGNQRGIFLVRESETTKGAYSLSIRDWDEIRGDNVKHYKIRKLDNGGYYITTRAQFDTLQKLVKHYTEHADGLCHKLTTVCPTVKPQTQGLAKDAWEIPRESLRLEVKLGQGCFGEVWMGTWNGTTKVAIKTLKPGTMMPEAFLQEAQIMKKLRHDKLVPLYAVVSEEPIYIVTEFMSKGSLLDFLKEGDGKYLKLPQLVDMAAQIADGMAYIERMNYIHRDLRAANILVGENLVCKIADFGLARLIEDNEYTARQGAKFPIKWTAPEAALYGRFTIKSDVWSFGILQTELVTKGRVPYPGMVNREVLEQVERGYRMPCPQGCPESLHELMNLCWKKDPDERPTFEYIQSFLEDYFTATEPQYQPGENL

[6] = target: Tyrosine-protein kinase FRK (Homo sapiens, UniProt P42685); assay: Inhibition of FRK (unknown origin)
Chain of Tyrosine-protein kinase FRK (P42685 whole entry): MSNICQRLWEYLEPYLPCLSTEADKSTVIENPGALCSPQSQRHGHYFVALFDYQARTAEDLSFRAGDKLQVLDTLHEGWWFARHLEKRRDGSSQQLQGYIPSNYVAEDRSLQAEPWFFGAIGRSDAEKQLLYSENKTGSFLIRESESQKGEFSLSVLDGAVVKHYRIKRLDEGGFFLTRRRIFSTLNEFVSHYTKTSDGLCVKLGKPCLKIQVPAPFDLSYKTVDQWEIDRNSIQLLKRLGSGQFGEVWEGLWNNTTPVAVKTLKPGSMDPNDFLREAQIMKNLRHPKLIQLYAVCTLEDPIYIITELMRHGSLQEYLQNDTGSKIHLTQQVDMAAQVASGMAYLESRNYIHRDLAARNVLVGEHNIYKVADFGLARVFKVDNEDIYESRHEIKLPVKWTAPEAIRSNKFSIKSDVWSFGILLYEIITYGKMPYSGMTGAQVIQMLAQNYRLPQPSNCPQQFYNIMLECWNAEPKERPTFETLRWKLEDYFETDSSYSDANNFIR

[7] = target: Proto-oncogene tyrosine-protein kinase Src (Homo sapiens, UniProt P12931); assay: Inhibition of SRC (unknown origin)
Chain of Proto-oncogene tyrosine-protein kinase Src (P12931 2-536 limits assumed): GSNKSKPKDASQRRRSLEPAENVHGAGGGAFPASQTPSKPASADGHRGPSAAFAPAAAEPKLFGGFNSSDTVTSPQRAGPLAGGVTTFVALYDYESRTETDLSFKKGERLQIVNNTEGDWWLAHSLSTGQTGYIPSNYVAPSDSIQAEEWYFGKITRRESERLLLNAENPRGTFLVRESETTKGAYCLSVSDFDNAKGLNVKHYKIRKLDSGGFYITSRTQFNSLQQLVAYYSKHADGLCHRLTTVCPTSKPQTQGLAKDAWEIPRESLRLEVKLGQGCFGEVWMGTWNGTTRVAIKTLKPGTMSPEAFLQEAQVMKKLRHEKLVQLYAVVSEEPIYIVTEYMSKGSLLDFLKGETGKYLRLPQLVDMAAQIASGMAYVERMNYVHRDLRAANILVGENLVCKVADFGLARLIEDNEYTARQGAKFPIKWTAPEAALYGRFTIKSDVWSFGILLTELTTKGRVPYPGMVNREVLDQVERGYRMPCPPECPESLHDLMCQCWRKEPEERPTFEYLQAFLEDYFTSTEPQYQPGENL

[8] = target: Tyrosine-protein kinase Lyn (Homo sapiens, UniProt P07948); assay: Inhibition of LYNB (unknown origin)
Chain of Tyrosine-protein kinase Lyn (P07948 whole entry): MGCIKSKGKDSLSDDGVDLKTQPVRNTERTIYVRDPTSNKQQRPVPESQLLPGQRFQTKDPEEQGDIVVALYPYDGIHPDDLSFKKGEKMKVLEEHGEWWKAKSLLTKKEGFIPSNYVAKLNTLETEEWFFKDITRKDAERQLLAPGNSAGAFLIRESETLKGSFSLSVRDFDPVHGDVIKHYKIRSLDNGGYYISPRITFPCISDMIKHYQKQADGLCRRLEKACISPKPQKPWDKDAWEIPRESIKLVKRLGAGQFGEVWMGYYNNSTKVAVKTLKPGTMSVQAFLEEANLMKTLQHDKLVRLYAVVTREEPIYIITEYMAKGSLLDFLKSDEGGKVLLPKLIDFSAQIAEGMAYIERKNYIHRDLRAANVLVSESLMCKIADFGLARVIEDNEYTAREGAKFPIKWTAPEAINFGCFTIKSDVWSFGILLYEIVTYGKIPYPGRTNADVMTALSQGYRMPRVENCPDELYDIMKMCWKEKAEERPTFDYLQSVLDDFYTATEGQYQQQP

[9] = target: Receptor tyrosine-protein kinase erbB-4 (Homo sapiens, UniProt Q15303); assay: Inhibition of ERBB4 (unknown origin)
[10] = target: Tyrosine-protein kinase Fyn (Homo sapiens, UniProt P06241); assay: Inhibition of FYN (unknown origin)
[11] = target: Tyrosine-protein kinase Srms (Homo sapiens, UniProt Q9H3Y6); assay: Inhibition of SRMS (unknown origin)
Chain of Tyrosine-protein kinase Srms (Q9H3Y6 whole entry): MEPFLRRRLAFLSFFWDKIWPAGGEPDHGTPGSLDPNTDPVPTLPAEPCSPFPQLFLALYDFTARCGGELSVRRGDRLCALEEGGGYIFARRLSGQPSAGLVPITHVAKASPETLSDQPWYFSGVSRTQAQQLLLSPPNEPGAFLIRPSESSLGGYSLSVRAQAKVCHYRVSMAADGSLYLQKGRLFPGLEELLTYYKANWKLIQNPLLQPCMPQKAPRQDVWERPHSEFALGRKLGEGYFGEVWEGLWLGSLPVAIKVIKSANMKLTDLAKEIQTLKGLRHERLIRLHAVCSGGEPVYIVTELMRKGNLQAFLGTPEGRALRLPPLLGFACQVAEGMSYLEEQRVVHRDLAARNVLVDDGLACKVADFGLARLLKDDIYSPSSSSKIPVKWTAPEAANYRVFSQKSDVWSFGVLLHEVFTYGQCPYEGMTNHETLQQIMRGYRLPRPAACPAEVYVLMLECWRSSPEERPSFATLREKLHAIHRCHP

[12] = target: T2, Tyrosine-protein kinase BTK; assay: Inhibition of BTK in human PBMC assessed as reduction in anti-IgM-induced MIP1beta
[13] = target: Tyrosine-protein kinase Fgr (Homo sapiens, UniProt P09769); assay: Inhibition of FGR (unknown origin)
Chain of Tyrosine-protein kinase Fgr (P09769 whole entry): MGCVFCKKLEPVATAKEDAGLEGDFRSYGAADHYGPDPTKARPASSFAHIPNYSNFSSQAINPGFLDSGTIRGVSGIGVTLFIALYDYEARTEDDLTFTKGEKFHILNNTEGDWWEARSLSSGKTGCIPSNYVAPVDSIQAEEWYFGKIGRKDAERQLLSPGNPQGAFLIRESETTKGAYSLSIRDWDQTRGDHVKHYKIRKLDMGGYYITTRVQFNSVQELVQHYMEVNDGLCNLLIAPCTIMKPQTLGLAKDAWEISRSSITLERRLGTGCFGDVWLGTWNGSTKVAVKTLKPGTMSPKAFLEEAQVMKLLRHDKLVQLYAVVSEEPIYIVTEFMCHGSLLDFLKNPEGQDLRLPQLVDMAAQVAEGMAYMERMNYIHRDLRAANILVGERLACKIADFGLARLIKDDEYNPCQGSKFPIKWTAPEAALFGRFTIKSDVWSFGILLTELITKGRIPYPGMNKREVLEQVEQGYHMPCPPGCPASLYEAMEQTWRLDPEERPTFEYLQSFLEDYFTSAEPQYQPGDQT

[14] = target: T3, Tyrosine-protein kinase TXK (Homo sapiens, UniProt P42681); assay: Inhibition of TXK (unknown origin)
T3 sequence (P42681 whole entry): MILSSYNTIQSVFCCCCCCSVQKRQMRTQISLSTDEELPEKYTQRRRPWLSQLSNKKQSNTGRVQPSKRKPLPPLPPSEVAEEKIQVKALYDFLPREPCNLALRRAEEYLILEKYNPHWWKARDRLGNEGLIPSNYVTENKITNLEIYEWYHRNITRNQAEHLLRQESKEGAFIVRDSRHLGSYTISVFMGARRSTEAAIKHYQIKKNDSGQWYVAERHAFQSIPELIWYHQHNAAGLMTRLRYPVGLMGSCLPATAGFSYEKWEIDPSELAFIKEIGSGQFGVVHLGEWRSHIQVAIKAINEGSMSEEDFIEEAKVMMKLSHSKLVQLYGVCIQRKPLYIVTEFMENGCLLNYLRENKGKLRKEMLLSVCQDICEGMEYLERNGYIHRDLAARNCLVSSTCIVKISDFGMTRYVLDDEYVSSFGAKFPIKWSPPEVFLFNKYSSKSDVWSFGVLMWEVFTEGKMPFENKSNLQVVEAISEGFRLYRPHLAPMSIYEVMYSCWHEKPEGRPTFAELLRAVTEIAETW

[15] = target: Tyrosine-protein kinase Blk (Homo sapiens, UniProt P51451); assay: Inhibition of BLK (unknown origin)
Chain of Tyrosine-protein kinase Blk (P51451 whole entry): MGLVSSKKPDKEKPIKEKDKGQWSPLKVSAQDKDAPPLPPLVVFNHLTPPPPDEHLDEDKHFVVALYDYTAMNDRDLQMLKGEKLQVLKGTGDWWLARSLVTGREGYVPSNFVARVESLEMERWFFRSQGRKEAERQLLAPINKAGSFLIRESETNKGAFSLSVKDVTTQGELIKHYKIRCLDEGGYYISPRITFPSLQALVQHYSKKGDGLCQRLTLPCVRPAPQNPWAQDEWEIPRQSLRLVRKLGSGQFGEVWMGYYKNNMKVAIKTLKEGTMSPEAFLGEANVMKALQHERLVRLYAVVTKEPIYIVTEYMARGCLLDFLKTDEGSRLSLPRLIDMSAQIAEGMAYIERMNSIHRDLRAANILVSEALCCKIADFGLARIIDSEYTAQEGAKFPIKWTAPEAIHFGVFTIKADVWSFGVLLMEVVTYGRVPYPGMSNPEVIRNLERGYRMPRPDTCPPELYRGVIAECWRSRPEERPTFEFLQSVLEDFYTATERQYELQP

[16] = target: Tyrosine-protein kinase CSK (Homo sapiens, UniProt P41240); assay: Inhibition of CSK (unknown origin)
[17] = target: T4, Cytoplasmic tyrosine-protein kinase BMX (Homo sapiens, UniProt P51813); assay: Inhibition of BMX (unknown origin)
T4 sequence (P51813 whole entry): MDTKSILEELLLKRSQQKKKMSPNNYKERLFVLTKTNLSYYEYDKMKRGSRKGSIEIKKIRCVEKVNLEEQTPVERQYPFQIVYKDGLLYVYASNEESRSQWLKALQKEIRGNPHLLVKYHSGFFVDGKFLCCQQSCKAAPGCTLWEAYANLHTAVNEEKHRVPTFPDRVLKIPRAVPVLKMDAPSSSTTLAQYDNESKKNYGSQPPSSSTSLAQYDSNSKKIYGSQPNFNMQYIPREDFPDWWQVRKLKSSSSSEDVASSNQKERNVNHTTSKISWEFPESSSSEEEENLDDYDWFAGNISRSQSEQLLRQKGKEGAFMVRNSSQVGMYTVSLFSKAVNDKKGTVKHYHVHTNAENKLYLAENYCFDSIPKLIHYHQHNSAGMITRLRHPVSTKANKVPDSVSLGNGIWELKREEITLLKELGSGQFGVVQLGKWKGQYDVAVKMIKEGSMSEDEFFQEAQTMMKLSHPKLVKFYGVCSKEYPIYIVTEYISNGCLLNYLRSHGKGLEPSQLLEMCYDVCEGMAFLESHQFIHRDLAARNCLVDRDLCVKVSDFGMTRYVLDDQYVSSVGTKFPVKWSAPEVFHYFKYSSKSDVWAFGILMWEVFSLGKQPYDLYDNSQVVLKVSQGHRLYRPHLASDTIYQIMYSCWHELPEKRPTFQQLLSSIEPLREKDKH

Homo sapiens [18] = organism: Homo sapiens; assay: Selectivity ratio of IC50 for SRC (unknown origin) to IC50 for BTK (unknown origin)
Homo sapiens [19] = organism: Homo sapiens; assay: Selectivity ratio of IC50 for SRMS (unknown origin) to IC50 for BTK (unknown origin)
Homo sapiens [20] = organism: Homo sapiens; assay: Selectivity ratio of IC50 for FGR (unknown origin) to IC50 for BTK (unknown origin)
Homo sapiens [21] = organism: Homo sapiens; assay: Selectivity ratio of IC50 for TEC (unknown origin) to IC50 for BTK (unknown origin)
Homo sapiens [22] = organism: Homo sapiens; assay: Selectivity ratio of IC50 for BLK (unknown origin) to IC50 for BTK (unknown origin)
[23] = Total clearance in rat plasma at 10 mg/kg; type: ADME, organism-based
Homo sapiens [24] = organism: Homo sapiens; assay: Selectivity ratio of IC50 for TXK (unknown origin) to IC50 for BTK (unknown origin)
Homo sapiens [25] = organism: Homo sapiens; assay: Selectivity ratio of IC50 for ERBB4 (unknown origin) to IC50 for BTK (unknown origin)
Homo sapiens [26] = organism: Homo sapiens; assay: Selectivity ratio of IC50 for BMX (unknown origin) to IC50 for BTK (unknown origin)
Homo sapiens [27] = organism: Homo sapiens; assay: Selectivity ratio of IC50 for FRK (unknown origin) to IC50 for BTK (unknown origin)
Homo sapiens [28] = organism: Homo sapiens; assay: Selectivity ratio of IC50 for YES1 (unknown origin) to IC50 for BTK (unknown origin)
Homo sapiens [29] = organism: Homo sapiens; assay: Selectivity ratio of IC50 for CSK (unknown origin) to IC50 for BTK (unknown origin)
[30] = Half life in rat at 10 mg/kg; type: ADME, organism-based; conditions: in vivo
Homo sapiens [31] = organism: Homo sapiens; assay: Selectivity ratio of IC50 for LCK (unknown origin) to IC50 for BTK (unknown origin)
[32] = target: Voltage-gated inwardly rectifying potassium channel KCNH2 (Homo sapiens, UniProt Q12809); assay: Inhibition of human ERG by [35S]-MK499 displacement or iKr channel assay
Homo sapiens [33] = organism: Homo sapiens; assay: Selectivity ratio of IC50 for PTK6 (unknown origin) to IC50 for BTK (unknown origin)
[34] = Oral bioavailability in rat at 10 mg/kg; type: ADME, organism-based; conditions: in vivo
[35] = Half life in dog at 2 mg/kg administered as cassette dose; type: ADME, organism-based, Canis lupus familiaris; conditions: in vivo
[36] = Total clearance in dog plasma at 2 mg/kg administered as cassette dose; type: ADME, organism-based, Canis lupus familiaris
Homo sapiens [37] = organism: Homo sapiens; assay: Selectivity ratio of IC50 for FYN (unknown origin) to IC50 for BTK (unknown origin)
Homo sapiens [38] = organism: Homo sapiens; assay: Selectivity ratio of IC50 for LYNB (unknown origin) to IC50 for BTK (unknown origin)

Chain of Tyrosine-protein kinase Lck (P06239 whole entry): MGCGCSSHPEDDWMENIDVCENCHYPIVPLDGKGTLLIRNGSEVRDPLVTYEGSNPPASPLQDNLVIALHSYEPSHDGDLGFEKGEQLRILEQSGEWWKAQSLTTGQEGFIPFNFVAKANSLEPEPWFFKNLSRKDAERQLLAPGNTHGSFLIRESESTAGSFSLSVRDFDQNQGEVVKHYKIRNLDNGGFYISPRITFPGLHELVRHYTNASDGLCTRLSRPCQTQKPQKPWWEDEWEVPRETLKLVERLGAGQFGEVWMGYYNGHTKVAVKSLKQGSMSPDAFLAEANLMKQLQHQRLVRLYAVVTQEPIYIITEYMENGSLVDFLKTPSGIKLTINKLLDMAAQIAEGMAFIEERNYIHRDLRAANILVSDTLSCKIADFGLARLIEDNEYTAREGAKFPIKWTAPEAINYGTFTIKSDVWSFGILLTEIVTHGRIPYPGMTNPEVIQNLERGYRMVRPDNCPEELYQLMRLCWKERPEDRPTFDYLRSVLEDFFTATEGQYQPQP

Row | IC50 [1] | IC50 [2] | IC50 [3] | IC50 [4] | IC50 [5] | IC50 [6] | IC50 [7] | IC50 [8] | IC50 [9] | IC50 [10] | IC50 [11] | IC50 [12] | IC50 [13] | IC50 [14] | IC50 [15] | IC50 [16] | IC50 [17] | Ratio IC50 (Homo sapiens [18]) | Ratio IC50 (Homo sapiens [19]) | Ratio IC50 (Homo sapiens [20]) | Structure (SMILES) | further results
1 | 74 nM | 378 nM | 0.25 to 0.3 nM | 350 nM | 189 nM | 472 nM | 265 nM | 646 nM | 230 nM | 894 nM | 84 nM | 5 nM | 203 nM | 132 nM | 53 nM | 1150 nM | 83 nM |  |  |  | CC(C)C(=O)N1CCC[C@@H](c2nc(-c3ccc(C(=O)Nc4cc(C(F)(F)F)ccn4)cc3F)c3c(N)nccn23)C1 | 
2 | 28 nM | 232 nM | 0.37 to 0.4 nM | 77 nM | 73 nM | 214 nM | 123 nM | 268 nM | 169 nM | 571 nM | 76 nM | 14 nM | 69 nM | 256 nM | 78 nM | 626 nM | 331 nM | 333 | 205 | 187 | COCC(=O)N1CCO[C@@H](c2nc(-c3ccc(C(=O)Nc4cc(C(F)(F)F)ccn4)cc3F)c3c(N)nccn23)C1 | Ratio IC50 (Homo sapiens [21]): 626; Ratio IC50 (Homo sapiens [22]): 212; clearance [23]: 8.2 mL/min/kg; Ratio IC50 (Homo sapiens [24]): 691; Ratio IC50 (Homo sapiens [25]): 457; Ratio IC50 (Homo sapiens [26]): 895; Ratio IC50 (Homo sapiens [27]): 578; Ratio IC50 (Homo sapiens [28]): 198; Ratio IC50 (Homo sapiens [29]): 2230; half-life [30]: 0.8 h; Ratio IC50 (Homo sapiens [31]): 75; IC50 [32]: 24000 nM; Ratio IC50 (Homo sapiens [33]): 209; bioavailability [34]: 42%; half-life [35]: 2.5 h; clearance [36]: 13.8 mL/min/kg; Ratio IC50 (Homo sapiens [37]): 1540; Ratio IC50 (Homo sapiens [38]): 723
3 | 11 nM | 63 nM | 0.2 to 0.22 nM | 60 nM | 37 nM | 151 nM | 55 nM | 74 nM | 71 nM | 188 nM | 19 nM | 13 nM | 28 nM | 45 nM | 9 nM | 261 nM | 20 nM | 251 | 86 | 127 | COCC(=O)N1CCC[C@@H](c2nc(-c3ccc(C(=O)Nc4cc(C(F)(F)F)ccn4)cc3F)c3c(N)nccn23)C1 | Ratio IC50 (Homo sapiens [21]): 287; Ratio IC50 (Homo sapiens [22]): 39; Ratio IC50 (Homo sapiens [24]): 203; Ratio IC50 (Homo sapiens [25]): 322; Ratio IC50 (Homo sapiens [26]): 93; Ratio IC50 (Homo sapiens [27]): 687; Ratio IC50 (Homo sapiens [28]): 167; Ratio IC50 (Homo sapiens [29]): 1180; Ratio IC50 (Homo sapiens [31]): 51; IC50 [32]: 4500 nM; Ratio IC50 (Homo sapiens [33]): 273; Ratio IC50 (Homo sapiens [37]): 853; Ratio IC50 (Homo sapiens [38]): 335
